Measurements as given in ChEMBL document CHEMBL5291721, “A preclinical secondary pharmacology resource illuminates target-adverse drug reaction associations of marketed drugs” (Nat Commun, 2023).

What was measured:
[1] = target: Histamine H3 receptor (Homo sapiens, UniProt Q9Y5N1)
[2] = target: cGMP-inhibited 3',5'-cyclic phosphodiesterase 3A (Homo sapiens, UniProt Q14432); format: functional
[3] = target: Acetylcholinesterase (Homo sapiens, UniProt P22303); format: functional
[4] = target: Sodium-dependent dopamine transporter (Homo sapiens, UniProt Q01959)
Sequence of Sodium-dependent dopamine transporter (Q01959 whole entry): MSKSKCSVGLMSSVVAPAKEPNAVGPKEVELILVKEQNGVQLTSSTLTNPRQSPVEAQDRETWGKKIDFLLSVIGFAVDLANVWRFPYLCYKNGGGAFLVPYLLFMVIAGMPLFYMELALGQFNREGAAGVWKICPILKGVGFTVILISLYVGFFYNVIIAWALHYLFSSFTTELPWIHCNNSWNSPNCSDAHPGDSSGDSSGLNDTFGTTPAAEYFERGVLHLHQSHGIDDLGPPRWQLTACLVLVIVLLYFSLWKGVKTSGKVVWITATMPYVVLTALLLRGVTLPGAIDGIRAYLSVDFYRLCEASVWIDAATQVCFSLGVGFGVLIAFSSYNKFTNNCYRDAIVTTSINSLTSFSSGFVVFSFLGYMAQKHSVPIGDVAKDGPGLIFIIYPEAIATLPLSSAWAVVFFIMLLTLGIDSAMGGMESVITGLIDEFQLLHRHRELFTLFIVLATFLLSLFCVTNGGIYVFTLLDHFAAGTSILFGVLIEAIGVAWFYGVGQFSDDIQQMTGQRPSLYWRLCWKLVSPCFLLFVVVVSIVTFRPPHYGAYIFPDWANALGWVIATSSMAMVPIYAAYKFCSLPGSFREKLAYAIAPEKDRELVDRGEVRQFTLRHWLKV

[5] = target: Prothrombin (Homo sapiens, UniProt P00734); format: functional
[6] = target: T1, Muscarinic acetylcholine receptor M2 (Homo sapiens, UniProt P08172)
T1 sequence (P08172 whole entry): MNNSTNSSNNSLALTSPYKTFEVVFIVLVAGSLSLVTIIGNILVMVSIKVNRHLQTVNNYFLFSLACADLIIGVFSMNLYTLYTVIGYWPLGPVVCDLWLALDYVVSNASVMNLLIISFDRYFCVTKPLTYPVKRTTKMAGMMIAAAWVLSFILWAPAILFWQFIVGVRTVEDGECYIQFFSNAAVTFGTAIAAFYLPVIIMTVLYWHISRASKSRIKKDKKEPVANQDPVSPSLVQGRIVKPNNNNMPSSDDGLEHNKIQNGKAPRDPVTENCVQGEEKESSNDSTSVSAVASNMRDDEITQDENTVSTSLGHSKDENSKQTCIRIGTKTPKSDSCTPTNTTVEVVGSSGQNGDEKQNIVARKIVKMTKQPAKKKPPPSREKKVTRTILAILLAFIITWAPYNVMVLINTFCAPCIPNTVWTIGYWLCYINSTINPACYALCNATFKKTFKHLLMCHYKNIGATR

[7] = target: T2, Alpha-1A adrenergic receptor (Homo sapiens, UniProt P35348); format: functional, cell-based
T2 sequence (P35348 whole entry): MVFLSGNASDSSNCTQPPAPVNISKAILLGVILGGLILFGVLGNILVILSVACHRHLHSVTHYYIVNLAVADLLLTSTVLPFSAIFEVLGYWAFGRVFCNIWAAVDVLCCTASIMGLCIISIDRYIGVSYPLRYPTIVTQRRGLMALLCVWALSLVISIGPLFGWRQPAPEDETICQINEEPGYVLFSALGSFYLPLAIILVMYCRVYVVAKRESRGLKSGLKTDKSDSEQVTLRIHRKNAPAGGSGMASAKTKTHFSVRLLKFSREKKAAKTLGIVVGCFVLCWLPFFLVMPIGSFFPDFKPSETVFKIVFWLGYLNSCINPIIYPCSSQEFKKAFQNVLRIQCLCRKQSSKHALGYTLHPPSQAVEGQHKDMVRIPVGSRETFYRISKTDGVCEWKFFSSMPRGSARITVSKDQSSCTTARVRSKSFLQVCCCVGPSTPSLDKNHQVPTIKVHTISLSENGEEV

[8] = target: T3, Prostaglandin G/H synthase 1 (Homo sapiens, UniProt P23219); format: functional
T3 sequence (P23219 whole entry): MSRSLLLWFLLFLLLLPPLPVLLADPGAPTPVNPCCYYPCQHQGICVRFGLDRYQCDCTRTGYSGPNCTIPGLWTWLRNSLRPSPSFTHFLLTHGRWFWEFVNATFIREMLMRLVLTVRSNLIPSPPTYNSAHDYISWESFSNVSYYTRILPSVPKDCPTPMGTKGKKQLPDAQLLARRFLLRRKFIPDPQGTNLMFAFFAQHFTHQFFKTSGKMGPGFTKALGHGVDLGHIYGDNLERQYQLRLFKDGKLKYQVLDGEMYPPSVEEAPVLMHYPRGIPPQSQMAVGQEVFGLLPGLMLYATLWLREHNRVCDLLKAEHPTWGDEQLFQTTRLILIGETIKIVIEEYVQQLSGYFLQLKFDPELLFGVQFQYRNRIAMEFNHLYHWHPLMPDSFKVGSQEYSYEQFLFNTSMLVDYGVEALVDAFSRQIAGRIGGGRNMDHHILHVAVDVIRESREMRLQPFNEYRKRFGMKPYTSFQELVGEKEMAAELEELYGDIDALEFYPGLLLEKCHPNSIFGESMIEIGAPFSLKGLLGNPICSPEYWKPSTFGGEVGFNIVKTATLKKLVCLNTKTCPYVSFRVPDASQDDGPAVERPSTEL

[9] = target: Sodium-dependent serotonin transporter (Homo sapiens, UniProt P31645)
Sequence of Sodium-dependent serotonin transporter (P31645 whole entry): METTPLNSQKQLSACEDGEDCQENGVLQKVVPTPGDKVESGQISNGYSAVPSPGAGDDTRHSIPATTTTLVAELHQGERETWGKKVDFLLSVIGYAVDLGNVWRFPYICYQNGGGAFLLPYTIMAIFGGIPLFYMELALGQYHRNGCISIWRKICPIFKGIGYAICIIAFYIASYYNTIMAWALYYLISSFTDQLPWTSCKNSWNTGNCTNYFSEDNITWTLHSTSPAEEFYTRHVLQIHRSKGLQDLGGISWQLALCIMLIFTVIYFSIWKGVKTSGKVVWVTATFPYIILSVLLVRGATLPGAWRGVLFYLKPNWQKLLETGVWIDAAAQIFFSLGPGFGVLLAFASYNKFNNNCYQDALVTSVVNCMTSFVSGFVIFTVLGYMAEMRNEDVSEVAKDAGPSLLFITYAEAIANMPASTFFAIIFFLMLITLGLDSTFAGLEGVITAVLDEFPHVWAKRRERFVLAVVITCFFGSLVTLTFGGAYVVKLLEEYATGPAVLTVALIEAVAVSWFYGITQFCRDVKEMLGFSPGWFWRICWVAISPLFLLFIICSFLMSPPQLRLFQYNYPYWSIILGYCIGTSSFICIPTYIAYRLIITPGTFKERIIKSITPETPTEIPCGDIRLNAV

[10] = target: Mu-type opioid receptor (Homo sapiens, UniProt P35372)
Sequence of Mu-type opioid receptor (P35372 whole entry): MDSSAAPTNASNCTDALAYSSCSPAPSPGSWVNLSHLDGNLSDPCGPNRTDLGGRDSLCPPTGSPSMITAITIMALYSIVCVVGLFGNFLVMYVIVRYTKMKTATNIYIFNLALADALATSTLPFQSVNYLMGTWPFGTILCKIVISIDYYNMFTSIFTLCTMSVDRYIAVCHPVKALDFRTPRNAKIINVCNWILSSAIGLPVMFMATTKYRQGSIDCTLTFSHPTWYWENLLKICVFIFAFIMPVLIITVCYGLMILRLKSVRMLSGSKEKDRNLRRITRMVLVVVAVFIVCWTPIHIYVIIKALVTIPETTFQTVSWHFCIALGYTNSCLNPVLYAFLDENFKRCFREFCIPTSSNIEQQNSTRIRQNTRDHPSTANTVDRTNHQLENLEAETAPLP

[11] = target: T4, Progesterone receptor (Homo sapiens, UniProt P06401)
T4 sequence (P06401 whole entry): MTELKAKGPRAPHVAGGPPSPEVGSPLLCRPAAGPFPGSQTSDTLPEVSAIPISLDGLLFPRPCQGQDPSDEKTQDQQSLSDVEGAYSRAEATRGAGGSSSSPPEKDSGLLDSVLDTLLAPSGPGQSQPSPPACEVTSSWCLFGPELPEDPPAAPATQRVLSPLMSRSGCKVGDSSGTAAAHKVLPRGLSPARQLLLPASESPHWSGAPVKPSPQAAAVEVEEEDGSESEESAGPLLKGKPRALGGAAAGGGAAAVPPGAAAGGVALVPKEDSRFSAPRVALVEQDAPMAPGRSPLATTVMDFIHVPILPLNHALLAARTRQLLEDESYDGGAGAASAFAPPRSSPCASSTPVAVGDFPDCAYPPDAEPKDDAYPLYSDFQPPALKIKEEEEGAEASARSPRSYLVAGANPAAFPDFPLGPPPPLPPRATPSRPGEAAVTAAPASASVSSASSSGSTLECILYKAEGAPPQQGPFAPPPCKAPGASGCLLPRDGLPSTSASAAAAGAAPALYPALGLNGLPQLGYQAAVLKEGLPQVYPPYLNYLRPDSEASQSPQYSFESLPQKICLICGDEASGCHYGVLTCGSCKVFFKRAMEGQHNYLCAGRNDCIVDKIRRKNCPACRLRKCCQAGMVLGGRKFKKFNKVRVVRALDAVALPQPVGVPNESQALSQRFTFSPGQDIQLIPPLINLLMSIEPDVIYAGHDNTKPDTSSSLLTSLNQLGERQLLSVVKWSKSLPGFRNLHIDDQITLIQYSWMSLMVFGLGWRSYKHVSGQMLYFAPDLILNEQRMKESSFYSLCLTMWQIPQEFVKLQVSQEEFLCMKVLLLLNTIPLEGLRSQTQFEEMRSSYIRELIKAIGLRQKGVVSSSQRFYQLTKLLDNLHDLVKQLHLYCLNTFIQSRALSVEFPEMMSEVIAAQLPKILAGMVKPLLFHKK

[12] = target: T3, Prostaglandin G/H synthase 1; format: functional; remark: listed apart in the source
[13] = target: T5, Adenosine receptor A3 (Homo sapiens, UniProt P0DMS8)
T5 sequence (P0DMS8 whole entry): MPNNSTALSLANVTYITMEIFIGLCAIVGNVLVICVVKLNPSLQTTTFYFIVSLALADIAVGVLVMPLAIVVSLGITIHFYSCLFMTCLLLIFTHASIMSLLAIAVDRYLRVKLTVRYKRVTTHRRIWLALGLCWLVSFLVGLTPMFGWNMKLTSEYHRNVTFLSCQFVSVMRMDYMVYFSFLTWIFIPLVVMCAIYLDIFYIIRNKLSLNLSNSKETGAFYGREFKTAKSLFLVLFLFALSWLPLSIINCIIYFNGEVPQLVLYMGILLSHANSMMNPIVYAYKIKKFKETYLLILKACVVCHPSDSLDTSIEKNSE
Further: assay procedure not described here.

Sequence of Acetylcholinesterase (P22303 whole entry): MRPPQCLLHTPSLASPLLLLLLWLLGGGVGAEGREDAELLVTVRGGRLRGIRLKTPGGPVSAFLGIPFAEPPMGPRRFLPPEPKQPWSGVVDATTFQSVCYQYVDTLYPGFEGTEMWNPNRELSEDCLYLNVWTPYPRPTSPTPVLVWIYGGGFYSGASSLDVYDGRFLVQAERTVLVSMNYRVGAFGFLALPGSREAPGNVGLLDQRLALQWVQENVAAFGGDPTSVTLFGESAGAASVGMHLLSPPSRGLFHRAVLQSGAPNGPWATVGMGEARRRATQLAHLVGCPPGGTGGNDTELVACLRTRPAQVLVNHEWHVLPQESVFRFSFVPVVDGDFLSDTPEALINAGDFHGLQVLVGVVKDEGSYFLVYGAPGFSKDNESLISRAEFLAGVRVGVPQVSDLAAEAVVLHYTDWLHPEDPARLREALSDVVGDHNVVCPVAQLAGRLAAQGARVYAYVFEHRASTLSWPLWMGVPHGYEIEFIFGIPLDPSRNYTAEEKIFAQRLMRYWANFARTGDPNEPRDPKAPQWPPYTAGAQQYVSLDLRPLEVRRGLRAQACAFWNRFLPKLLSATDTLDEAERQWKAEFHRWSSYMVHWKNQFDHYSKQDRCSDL
Sequence of Histamine H3 receptor (Q9Y5N1 whole entry): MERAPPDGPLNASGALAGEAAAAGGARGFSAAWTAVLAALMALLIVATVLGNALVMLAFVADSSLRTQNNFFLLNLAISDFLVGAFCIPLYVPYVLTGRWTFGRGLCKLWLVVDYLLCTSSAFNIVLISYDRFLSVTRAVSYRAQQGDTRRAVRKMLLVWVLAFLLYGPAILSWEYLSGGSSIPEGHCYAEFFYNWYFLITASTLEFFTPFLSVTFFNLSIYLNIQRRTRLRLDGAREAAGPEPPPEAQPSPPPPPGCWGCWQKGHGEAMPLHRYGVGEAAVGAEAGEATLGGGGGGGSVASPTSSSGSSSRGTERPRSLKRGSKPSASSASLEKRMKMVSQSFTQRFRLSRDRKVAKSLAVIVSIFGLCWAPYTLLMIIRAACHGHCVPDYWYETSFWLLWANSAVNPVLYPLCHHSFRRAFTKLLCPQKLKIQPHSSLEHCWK
Sequence of cGMP-inhibited 3',5'-cyclic phosphodiesterase 3A (Q14432 whole entry): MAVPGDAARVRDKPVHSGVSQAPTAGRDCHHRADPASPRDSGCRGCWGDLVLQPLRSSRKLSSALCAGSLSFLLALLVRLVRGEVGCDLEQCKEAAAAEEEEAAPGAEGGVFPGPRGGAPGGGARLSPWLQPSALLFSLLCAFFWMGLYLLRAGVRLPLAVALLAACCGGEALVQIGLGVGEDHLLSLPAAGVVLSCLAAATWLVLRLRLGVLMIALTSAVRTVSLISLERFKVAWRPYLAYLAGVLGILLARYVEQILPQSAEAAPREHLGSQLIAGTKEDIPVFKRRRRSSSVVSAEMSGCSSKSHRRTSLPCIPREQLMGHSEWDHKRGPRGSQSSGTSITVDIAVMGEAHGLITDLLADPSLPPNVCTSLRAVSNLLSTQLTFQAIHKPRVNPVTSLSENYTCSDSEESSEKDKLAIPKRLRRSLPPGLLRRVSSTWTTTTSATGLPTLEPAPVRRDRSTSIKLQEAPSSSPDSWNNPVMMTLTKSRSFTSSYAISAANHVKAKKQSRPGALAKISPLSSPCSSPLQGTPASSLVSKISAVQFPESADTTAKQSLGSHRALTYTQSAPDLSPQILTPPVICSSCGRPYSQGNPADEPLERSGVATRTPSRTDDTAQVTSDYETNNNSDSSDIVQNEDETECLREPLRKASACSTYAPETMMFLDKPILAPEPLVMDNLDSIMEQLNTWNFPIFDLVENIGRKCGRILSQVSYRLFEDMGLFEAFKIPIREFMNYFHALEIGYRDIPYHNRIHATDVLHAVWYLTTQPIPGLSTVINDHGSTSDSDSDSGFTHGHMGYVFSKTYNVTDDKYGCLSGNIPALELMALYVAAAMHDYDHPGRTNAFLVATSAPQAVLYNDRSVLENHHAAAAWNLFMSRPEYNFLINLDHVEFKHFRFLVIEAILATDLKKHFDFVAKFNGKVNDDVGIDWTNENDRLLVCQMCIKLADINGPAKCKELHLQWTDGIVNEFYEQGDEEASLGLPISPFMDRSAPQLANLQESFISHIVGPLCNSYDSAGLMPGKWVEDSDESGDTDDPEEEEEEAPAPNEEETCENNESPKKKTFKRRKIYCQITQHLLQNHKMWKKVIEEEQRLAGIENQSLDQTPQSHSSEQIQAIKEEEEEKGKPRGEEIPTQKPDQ

Row | SMILES | AC50 [1] [µM] | AC50 [2] [µM] | AC50 [3] [µM] | AC50 [4] [µM] | AC50 [5] [µM] | AC50 [6] [µM] | AC50 [7] [µM] | AC50 [8] [µM] | AC50 [9] [µM] | AC50 [10] [µM] | AC50 [11] [µM] | AC50 [12] [µM] | AC50 [13] [µM]
1 | O=C(OOC(=O)c1ccccc1)c1ccccc1 [BENZOYL PEROXIDE] | > 30 | > 30 | > 30 | > 30 | 9.02 | > 30 | > 30 | > 30 | > 30 | > 30 | > 30 | > 30 | –
2 | CC1(C)C[C@@H]1C(=O)N/C(=C\CCCCSC[C@H](N)C(=O)O)C(=O)O [CILASTATIN] | > 30 | > 30 | > 30 | > 30 | > 30 | > 30 | > 30 | > 30 | > 30 | > 30 | > 30 | > 30 | –
3 | COc1ccc(C(=O)c2ccccc2)c(O)c1 [OXYBENZONE] | > 30 | > 30 | > 30 | 16.5 | > 30 | > 30 | > 30 | > 30 | > 30 | > 30 | 25.7 | > 30 | –
4 | CSCC[C@H](N)C(=O)O [METHIONINE] | > 30 | > 30 | > 30 | > 30 | > 30 | > 30 | – | > 30 | > 30 | > 30 | > 30 | > 30 | –
5 | CC(=O)Nc1ccc(/C=N/NC(N)=S)cc1 [AMITHIOZONE] | > 30 | > 30 | > 30 | > 30 | > 30 | > 30 | – | > 30 | > 30 | > 30 | > 30 | > 30 | –
6 | CC(=O)O[C@]1(C(C)=O)CC[C@H]2[C@@H]3CCC4=CC(=O)CCC4=C3[C@@H](c3ccc(N(C)C)cc3)C[C@@]21C [ULIPRISTAL ACETATE] | > 30 | > 30 | > 30 | > 30 | > 30 | > 30 | > 30 | > 30 | > 30 | 22.5 | 0.003 | > 30 | –
7 | Cc1ccc(O)c([C@H](CCN(C(C)C)C(C)C)c2ccccc2)c1 [TOLTERODINE] | > 30 | – | > 30 | > 30 | – | – | > 30 | – | 20.3 | > 30 | – | – | –
8 | COc1c(OCCCN2CCOCC2)ccc2c1N=C(NC(=O)c1cnc(N)nc1)N1CCN=C21 [COPANLISIB] | > 30 | > 30 | > 30 | > 30 | > 30 | 5.64 | > 30 | > 30 | > 30 | > 30 | > 30 | > 30 | –
9 | OC(CN1CCCCC1)c1cc(-c2ccccc2)on1 (stereo not given) [PERISOXAL] | 15.8 | > 30 | > 30 | > 30 | > 30 | 16.9 | – | > 30 | > 30 | 27.4 | > 30 | > 30 | –
10 | CC(=O)OCC(=O)[C@@]1(OC(C)=O)[C@@H](C)C[C@H]2[C@@H]3C[C@H](F)C4=CC(=O)C=C[C@]4(C)[C@@]3(F)[C@@H](O)C[C@@]21C [DIFLORASONE DIACETATE] | > 30 | > 30 | > 30 | > 30 | > 30 | > 30 | > 30 | > 30 | – | > 30 | 0.0193 | > 30 | > 30
11 | C[C@@H](O)[C@H]1C(=O)N2C(C(=O)O)=C(S[C@@H]3CN[C@H](C(=O)Nc4cccc(C(=O)O)c4)C3)[C@H](C)[C@H]12 | > 30 | > 30 | > 30 | > 30 | > 30 | > 30 | – | 10.2 | > 30 | > 30 | > 30 | 19.9 | –
12 | COc1cccc2c1C(=O)c1c(O)c3c(c(O)c1C2=O)C[C@@](O)(C(=O)CO)C[C@@H]3O[C@H]1C[C@H](N)[C@@H](O)[C@H](C)O1 [EPIRUBICIN] | > 30 | > 30 | 17 | > 30 | > 30 | 25.2 | 8.86 | > 30 | – | > 30 | > 30 | 2.44 | > 30
13 | COc1cccc2c1C(=O)c1c(O)c3c(c(O)c1C2=O)C[C@@](O)(C(=O)CO)C[C@@H]3O[C@H]1C[C@H](N)[C@H](O)[C@H](C)O1 [DOXORUBICIN] | > 30 | > 30 | > 30 | > 30 | > 30 | > 30 | > 30 | > 30 | – | > 30 | > 30 | 15.5 | > 30
14 | CC(=O)OC1CN2CCC1CC2 (stereo not given) [ACECLIDINE] | > 30 | > 30 | > 30 | > 30 | > 30 | – | – | > 30 | > 30 | > 30 | > 30 | > 30 | –
15 | COc1ncnc(NS(=O)(=O)c2ccc(N)cc2)c1OC [SULFADOXINE] | > 30 | > 30 | > 30 | > 30 | > 30 | > 30 | > 30 | > 30 | – | > 30 | > 30 | > 30 | > 30
16 | C[C@@H]1CN(c2c(F)c(N)c3c(=O)c(C(=O)O)cn(C4CC4)c3c2F)C[C@H](C)N1 [SPARFLOXACIN] | > 30 | > 30 | > 30 | > 30 | > 30 | > 30 | > 30 | > 30 | – | > 30 | > 30 | > 30 | > 30
